Test results taken from US4694018A, “Substituted 1,5-diphenyl-2-pyrrolepropionic acids and derivatives” (G. D. Serale & Co., priority 1985, dated 1987).

Experiments:
[1] = test system: SRS synthesis by Rat Basophilic Leukemia Cell (RBL-1) cells; assay: Inhibition of slow reacting substance (SRS) biosynthesis in RBL-1 cells; type: cell-based; details: ionophore A23187, guinea pig ileum bioassay
Protocol: (2) Inhibition of slow reacting substance (SRS) biosynthesis in cells.
SRS synthesis by Rat Basophilic Leukemia Cell (RBL-1) cells is induced by incubation of cells with ionophore A23187 alone and in combination with the test compound. The SRS released into the culture media is measured. The percent inhibition of SRS production is estimated by determining the doses of treated and control media needed in the tissue bath to produce equivalent contractions of segments of isolated guinea pig ileum.
Initial screening doses of test compounds are 1×10^-4 M and 1×10^-5 M.

5-lipoxygenase = target: T1, 5-lipoxygenase (Rattus norvegicus, UniProt P12527); assay: Inhibition of 5-lipoxygenase, in vitro (5-HETE synthesis by RBL-1 homogenate 100,000×g supernatant); type: biochemical; details: RBL-1 homogenate supernatant, 5-HETE from [1-14C]-arachidonic acid with Ca++; read-out: Rat Basophilic Leukemia Cell- Inhibition IC50
T1 construct: supernatant fraction of Rat Basophilic Leukemia Cell Homogenate (RBL-1) serves as a 5-lipoxygenase enzyme source; endogenous in cells; host or cells: RBL-1 (rat basophilic leukemia cells), 100,000×g supernatant of homogenate
T1 sequence (P12527 1-673): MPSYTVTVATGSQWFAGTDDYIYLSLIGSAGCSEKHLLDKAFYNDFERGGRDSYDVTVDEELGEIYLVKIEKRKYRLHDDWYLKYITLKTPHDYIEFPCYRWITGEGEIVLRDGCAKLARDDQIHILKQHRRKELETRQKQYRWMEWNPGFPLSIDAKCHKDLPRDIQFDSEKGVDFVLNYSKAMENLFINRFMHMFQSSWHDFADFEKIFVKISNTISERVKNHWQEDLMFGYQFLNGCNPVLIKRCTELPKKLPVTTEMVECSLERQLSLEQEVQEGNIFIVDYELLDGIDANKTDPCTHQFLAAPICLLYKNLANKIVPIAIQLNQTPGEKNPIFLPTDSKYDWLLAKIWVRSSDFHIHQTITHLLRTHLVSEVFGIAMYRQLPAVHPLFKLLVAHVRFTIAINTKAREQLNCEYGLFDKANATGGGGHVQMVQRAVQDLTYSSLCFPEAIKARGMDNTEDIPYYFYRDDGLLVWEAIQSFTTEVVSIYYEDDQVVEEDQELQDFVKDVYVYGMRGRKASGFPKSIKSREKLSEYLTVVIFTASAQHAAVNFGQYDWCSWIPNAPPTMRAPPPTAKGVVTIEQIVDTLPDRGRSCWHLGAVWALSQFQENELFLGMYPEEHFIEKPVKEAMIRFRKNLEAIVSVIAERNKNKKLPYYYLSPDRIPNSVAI
Protocol: (1) Inhibition of 5-lipoxygenase, in vitro: anti-inflammatory, anti-allergyactivities.
The 100,000×g supernatant fraction of Rat Basophilic Leukemia Cell Homogenate (RBL-1) serves as a 5-lipoxygenase enzyme source. The enzyme is incubated with [1-^14 C]-arachidonic acid and Ca++ in the presence and absence of test compound. The product of 5-lipoxygenase, 5-hydroxyeicosatetraenoic acid (5-HETE), is separated by thin-layer chromatography and measured by radioactivity. A compound inhibiting 5-HETE synthesis by 30% or more is considered active at that concentration.

[2] = test system: bronchoconstricting effects; details: versus histamine; cited from earlier work

Row | IC50 (5-lipoxygenase) | SMILES | inhibition at 5 µM [1] | potency relative to histamine in causing long lasting bronchoconstricting effects [2]
1 | 10 µM | O=C(O)CCc1ccc(-c2ccc(Cl)cc2)n1-c1cc(Cl)ccc1O [Example 5, 1-(5-chloro-2-hydroxyphenyl)-5-(4-chlorophenyl)-1H-pyrrole-2-propanoic acid] | – | –
2 | 35 µM | COc1ccc(-c2ccc(CCC(=O)O)n2-c2cc(Cl)ccc2O)cc1 [Example 7, 1-(5-chloro-2-hydroxyphenyl)-5-(4-methoxyphenyl)-1H-pyrrole-2-propanoic acid] | – | –

The next lines start with the compound.

Row | SMILES | IC50 (5-lipoxygenase) | inhibition at 5 µM [1] | potency relative to histamine in causing long lasting bronchoconstricting effects [2]
3 | O=C(O)CCc1ccc(-c2ccc(F)cc2)n1-c1cc(Cl)ccc1O [Example 1, 1-(5-chloro-2-hydroxyphenyl)-5-(4-fluorophenyl)-1H-pyrrole-2-propanoic acid] | 0.83 µM | 82% | –
4 | NC(=O)CCc1ccc(-c2ccc(F)cc2)n1-c1cc(Cl)ccc1O [Example 4, 1-(5-chloro-2-hydroxyphenyl)-5-(4-fluorophenyl)-1H-pyrrole-2-propanamide] | 2.4 µM | – | –
5 | CCCCC/C=C\C\C=C/C=C/C=C/[C@@H](SC[C@H](NC(=O)CC[C@H](N)C(=O)O)C(=O)NCC(=O)O)[C@@H](O)CCCC(=O)O [LTC4] | – | – | at least 100 times
